# Experimental data from patent US6737383B1, “Herbicidal oxadiazolidines” (priority 1999, dated 2004).
# Columns and labels:
# blackgrass = experiment: Test B pre/postemergence blackgrass; assay type: in vivo, Alopecurus myosuroides
# Method in brief: (§1)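 Response is a visual 0-to-10 score relative to untreated plants, where 0 means no effect and 10 means complete control, taken twelve to sixteen days after application. Treatments went onto soil at planting and onto foliage of 1- to 4-leaf plants, using a surfactant-containing non-phytotoxic solvent.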
# sugar beet = experiment: Test B pre/postemergence sugar beet; assay type: in vivo, Beta vulgaris
# Method in brief: as §1
# soybean = experiment: Test B pre/postemergence soybean; assay type: in vivo, Glycine max
# Method in brief: as §1
# cocklebur = experiment: Test B pre/postemergence cocklebur; assay type: in vivo, Xanthium strumarium
# Method in brief: as §1
# crabgrass = experiment: Test B pre/postemergence crabgrass; assay type: in vivo, Digitaria sanguinalis
# Method in brief: as §1
# purple nutsedge = experiment: Test B pre/postemergence purple nutsedge; assay type: in vivo, Cyperus rotundus
# Method in brief: as §1
# giant foxtail = experiment: Test B pre/postemergence giant foxtail; assay type: in vivo, Setaria faberii
# Method in brief: as §1
# bedstraw = experiment: Test B pre/postemergence bedstraw; assay type: in vivo, Galium aparine
# Method in brief: as §1
# pigweed = experiment: Test B pre/postemergence pigweed; assay type: in vivo, Amaranthus retroflexus
# Method in brief: as §1
# surinam grass = experiment: Test B pre/postemergence surinam grass; assay type: in vivo, Brachiaria decumbens
# Method in brief: as §1
# corn = experiment: Test B pre/postemergence corn; assay type: in vivo, Zea mays
# Method in brief: as §1
# velvetleaf = experiment: Test B pre/postemergence velvetleaf; assay type: in vivo, Abutilon theophrasti
# Method in brief: as §1
# wild oat = experiment: Test B pre/postemergence wild oat; assay type: in vivo, Avena fatua
# Method in brief: as §1
# rice = experiment: Test B flood test rice; assay type: in vivo, Oryza sativa
# Method in brief: (§2)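 Plants were grown to the 2-leaf stage before treatment with test chemical, then held in a greenhouse for twelve to sixteen days. Injury was visually rated against untreated controls on a 0–10 scale, where 0 is no effect and 10 is complete control.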
# bamyardgrass = experiment: Test B flood test barnyardgrass; assay type: in vivo, Echinochloa crus-galli
# Method in brief: as §2
# morningglory = experiment: Test B pre/postemergence morningglory; assay type: in vivo, Ipomoea hederacea
# Method in brief: as §1
# duck salad = experiment: Test B flood test duck salad; assay type: in vivo, Heteranthera limosa
# Method in brief: as §2
# smallflower flatsedge = experiment: Test B flood test smallflower flatsedge; assay type: in vivo, Cyperus difformis
# Method in brief: as §2
# rape = experiment: Test B pre/postemergence rape; assay type: in vivo, Brassica napus
# Method in brief: as §1
# wheat = experiment: Test B pre/postemergence wheat; assay type: in vivo, Triticum aestivum
# Method in brief: as §1
# [1] = Preemergence, Rate 62 g/ha, scale of 0 to 10 where 0 is no effect and 10 is complete control
# [2] = Preemergence, Rate 250 g/ha, scale of 0 to 10 where 0 is no effect and 10 is complete control
# [3] = Preemergence, Rate 500 g/ha, scale of 0 to 10 where 0 is no effect and 10 is complete control
# [4] = Rate 62 g/ha, Postemergence, scale of 0 to 10 where 0 is no effect and 10 is complete control
# [5] = Rate 125 g/ha, Postemergence, scale 0 to 10
# [6] = Rate 125 g/ha, Preemergence, scale of 0 to 10 where 0 is no effect and 10 is complete control
# [7] = Rate 500 g/ha, Postemergence, scale 0 to 10, 0 no effect, 10 complete control
# [8] = Rate 62 g/ha, headed Pre-emergence (flood test species), scale 0 to 10 (0 no effect, 10 complete control)
# [9] = Rate 125 g/ha, Pre-emergence, flood test species, scale 0 to 10 where 0 is no effect and 10 is complete control
# [10] = Rate 250 g/ha, Pre-emergence, flood-test species, scale 0 to 10, 0 is no effect, 10 is complete control
# [11] = Rate 500 g/ha, Pre-emergence, flood test species, scale 0 to 10 (0 no effect, 10 complete control)
smiles,measurement,setting,value
COC(=O)CCCn1c(=O)on(C(=O)N(c2ccc(F)cc2)C(C)C)c1=O [Compound 266],Blackgrass plant response rating,blackgrass; [1],8
same,Blackgrass plant response rating,blackgrass; [2],9
same,"Plant response rating, Blackgrass",blackgrass; [3],9
same,Blackgrass plant response rating,blackgrass; [4],3
same,Blackgrass plant response rating,blackgrass; [5],5
same,Blackgrass plant response rating,blackgrass; [6],8
same,"Plant response rating (0 to 10; 0 is no effect, 10 is complete control), Blackgrass","blackgrass; Rate 250 g/ha, Postemergence",6
same,Blackgrass plant response rating,blackgrass; [7],8
same,Sugarbeets plant response rating,sugar beet; [1],0
same,Sugarbeets plant response rating,sugar beet; [2],7
same,"Plant response rating, Sugarbeets",sugar beet; [3],7
same,Sugarbeets plant response rating,sugar beet; [6],5
same,Sugarbeets plant response rating,sugar beet; [7],7
same,Soybean plant response rating,soybean; [1],0
same,Soybean plant response rating,soybean; [2],0
same,"Plant response rating, Soybean",soybean; [3],0
same,Soybean plant response rating,soybean; [6],0
same,Soybean plant response rating,soybean; [7],8
same,Cocklebur plant response rating,cocklebur; [1],0
same,Cocklebur plant response rating,cocklebur; [2],0
same,"Plant response rating, Cocklebur",cocklebur; [3],0
same,Cocklebur plant response rating,cocklebur; [4],0
same,Cocklebur plant response rating,cocklebur; [5],0
same,Cocklebur plant response rating,cocklebur; [6],0
same,"Plant response rating (0 to 10; 0 is no effect, 10 is complete control), Cocklebur","cocklebur; Rate 250 g/ha, Postemergence",2
same,Cocklebur plant response rating,cocklebur; [7],2
same,Crabgrass plant response rating,crabgrass; [1],0
same,Crabgrass plant response rating,crabgrass; [2],5
same,"Plant response rating, Crabgrass",crabgrass; [3],6
same,Crabgrass plant response rating,crabgrass; [6],1
same,"Plant response rating (0 to 10; 0 is no effect, 10 is complete control), Crabgrass","crabgrass; Rate 250 g/ha, Postemergence",3
same,Crabgrass plant response rating,crabgrass; [7],5
same,Nutsedge plant response rating,purple nutsedge; [2],0
same,"Plant response rating, Nutsedge",purple nutsedge; [3],0
same,Nutsedge plant response rating,purple nutsedge; [6],0
same,"Plant response rating (0 to 10; 0 is no effect, 10 is complete control), Nutsedge","purple nutsedge; Rate 250 g/ha, Postemergence",0
same,Nutsedge plant response rating,purple nutsedge; [7],3
same,Giant foxtail plant response rating,giant foxtail; [1],0
same,Giant foxtail plant response rating,giant foxtail; [2],6
same,"Plant response rating, Giant foxtail",giant foxtail; [3],8
same,Giant foxtail plant response rating,giant foxtail; [6],4
same,"Plant response rating (0 to 10; 0 is no effect, 10 is complete control), Giant foxtail","giant foxtail; Rate 250 g/ha, Postemergence",5
same,Giant foxtail plant response rating,giant foxtail; [7],7
same,Bedstraw plant response rating,bedstraw; [1],0
same,Bedstraw plant response rating,bedstraw; [2],8
same,"Plant response rating, Bedstraw",bedstraw; [3],9
same,Bedstraw plant response rating,bedstraw; [4],0
same,Bedstraw plant response rating,bedstraw; [5],0
same,Bedstraw plant response rating,bedstraw; [6],3
same,"Plant response rating (0 to 10; 0 is no effect, 10 is complete control), Bedstraw","bedstraw; Rate 250 g/ha, Postemergence",5
same,Bedstraw plant response rating,bedstraw; [7],6
same,Redroot pigweed plant response rating,pigweed; [1],0
same,Redroot pigweed plant response rating,pigweed; [2],6
same,"Plant response rating, Redroot pigweed",pigweed; [3],9
same,Redroot pigweed plant response rating,pigweed; [6],0
same,"Plant response rating (0 to 10; 0 is no effect, 10 is complete control), Redroot pigweed","pigweed; Rate 250 g/ha, Postemergence",5
same,Redroot pigweed plant response rating,pigweed; [7],7
same,B. signalgrass plant response rating,surinam grass; [1],0
same,B. signalgrass plant response rating,surinam grass; [2],0
same,"Plant response rating, B. signalgrass",surinam grass; [3],7
same,B. signalgrass plant response rating,surinam grass; [4],0
same,B. signalgrass plant response rating,"surinam grass; Rate 125 g/ha, Postemergence, scale 0 (no effect) to 10 (complete control)",0
same,B. signalgrass plant response rating,surinam grass; [6],0
same,"Plant response rating (0 to 10; 0 is no effect, 10 is complete control), B. signalgrass","surinam grass; Rate 250 g/ha, Postemergence",0
same,B. signalgrass plant response rating,surinam grass; [7],2
same,Corn plant response rating,corn; [1],0
same,Corn plant response rating,corn; [2],0
same,"Plant response rating, Corn",corn; [3],0
same,Corn plant response rating,corn; [4],0
same,Corn plant response rating,corn; [5],0
same,Corn plant response rating,corn; [6],0
same,"Plant response rating (0 to 10; 0 is no effect, 10 is complete control), Corn","corn; Rate 250 g/ha, Postemergence",0
same,Corn plant response rating,corn; [7],0
same,Velvetleaf plant response rating,velvetleaf; [1],0
same,Velvetleaf plant response rating,velvetleaf; [2],0
same,"Plant response rating, Velvetleaf",velvetleaf; [3],4
same,Velvetleaf plant response rating,velvetleaf; [6],0
same,Velvetleaf plant response rating,velvetleaf; [7],5
same,Wild oats plant response rating,wild oat; [1],0
same,Wild oats plant response rating,wild oat; [2],5
same,"Plant response rating, Wild oats",wild oat; [3],7
same,Wild oats plant response rating,wild oat; [6],2
same,Wild oats plant response rating,wild oat; [7],2
same,Rice plant response rating,rice; [8],0
same,Rice plant response rating,rice; [9],0
same,Rice plant response rating,rice; [10],0
same,Rice plant response rating,rice; [11],0
same,Barnyardgrass plant response rating,bamyardgrass; [8],0
same,Barnyardgrass plant response rating,bamyardgrass; [9],0
same,Barnyardgrass plant response rating,bamyardgrass; [10],0
same,Barnyardgrass plant response rating,bamyardgrass; [11],0
same,Morningglory plant response rating,morningglory; [1],0
same,Morningglory plant response rating,morningglory; [2],0
same,"Plant response rating, Morningglory",morningglory; [3],1
same,Morningglory plant response rating,morningglory; [6],0
same,"Plant response rating (0 to 10; 0 is no effect, 10 is complete control), Morningglory","morningglory; Rate 250 g/ha, Postemergence",5
same,Morningglory plant response rating,morningglory; [7],8
same,Ducksalad plant response rating,duck salad; [8],0
same,Ducksalad plant response rating,duck salad; [9],0
same,Ducksalad plant response rating,duck salad; [10],0
same,Ducksalad plant response rating,duck salad; [11],0
same,S. Flatsedge plant response rating,smallflower flatsedge; [8],0
same,S. Flatsedge plant response rating,smallflower flatsedge; [9],0
same,S. Flatsedge plant response rating,smallflower flatsedge; [10],0
same,S. Flatsedge plant response rating,smallflower flatsedge; [11],0
same,Rape plant response rating,rape; [1],0
same,Rape plant response rating,rape; [2],5
same,"Plant response rating, Rape",rape; [3],5
same,Rape plant response rating,rape; [6],0
same,"Plant response rating (0 to 10; 0 is no effect, 10 is complete control), Rape","rape; Rate 250 g/ha, Postemergence",6
same,Rape plant response rating,rape; [7],7
same,Wheat plant response rating,wheat; [1],0
same,Wheat plant response rating,wheat; [2],4
same,"Plant response rating, Wheat",wheat; [3],6
same,Wheat plant response rating,wheat; [6],0
same,Wheat plant response rating,wheat; [7],6
